Pest or weed control data for eight compounds are collected here from patent US20110086759A1, “CHEMICAL COMPOUNDS” (SYNGENTA CROP PROTECTION, INC., priority 2007, published 2011).

Common to all, as to type: in vivo
Assay [1] has as its system Ipomea hederaceae (IPOHE). In words: Post-emergence biological efficacy, glasshouse pot test. To be noted: Ipomoea hederacea, 312 h; Rate 1,000 g/ha; post-emergence spray; evaluated after 13 days (100=total damage to plant; 0=no damage to plant); read-out: Percentage damage caused to weed species, post-emergence, IPOHE. The gist of the method: (§1)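 Pot-grown weeds were sprayed 8 days after sowing with test compound in acetone/water (50:50) with 0.5% Tween 20 at 1000 or 250 g/ha. Glasshouse at 24/16° C day/night, 14 h light, 65% humidity. Damage scored 0-100 (100 = total damage) after 13 days.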

Assay [2] has as its system Echinochloa crus-galli (ECHCG). Described as above. To be noted: 312 h, Rate 1,000 g/ha, post-emergence spray, evaluated after 13 days (100=total damage to plant; 0=no damage to plant), read-out: Percentage damage caused to weed species, post-emergence, ECHCG. The essentials:
as §1

Assay [3] has as its system Alopecurus myosuroides (ALOMY). Described as above. To be noted: 312 h, Rate 1,000 g/ha, post-emergence spray, evaluated after 13 days (100=total damage to plant; 0=no damage to plant), read-out: Percentage damage caused to weed species, post-emergence, ALOMY. The essentials: as §1
The subject of assay [4] is Solanum nigrum (SOLNI). The description is as above. The note with it: 312 h, Rate 1,000 g/ha, post-emergence spray, evaluated after 13 days (100=total damage to plant; 0=no damage to plant), read-out: Percentage damage caused to weed species, post-emergence, SOLNI. The essentials:
as §1

Assay [5] has as its system Setaria faberi (SETFA). The description is as above. The note with it: 312 h, Rate 1,000 g/ha, post-emergence spray, evaluated after 13 days (100=total damage to plant; 0=no damage to plant), read-out: Percentage damage caused to weed species, post-emergence, SETFA. The essentials:
as §1

Assay [6] concerns Amaranthus retoflexus (AMARE). The assay is described as above. The note with it: Amaranthus retroflexus, 312 h; Rate 1,000 g/ha; post-emergence spray; evaluated after 13 days (100=total damage to plant; 0=no damage to plant); read-out: Percentage damage caused to weed species, post-emergence, AMARE. The essentials:
as §1

For assay [7], the system named is Ipomea hederaceae (IPOHE). The assay is described as follows: Pre-emergence biological efficacy, glasshouse pot test. The note with it: Ipomoea hederacea, 312 h; pre-emergence, rate 1,000 g/ha, evaluated after 13 days (100=total damage to plant; 0=no damage); read-out: Percentage damage caused to weed species, IPOHE. The gist of the method: (§2)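 Damage rated 0–100 (100 = total kill) 13 days post-spray. Pots of standard soil were sown and sprayed after one day with test compound at 1000 or 250 g/ha in acetone/water (50:50) plus 0.5% Tween 20.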

For assay [8], the system named is Echinochloa crus-galli (ECHCG). Described as above. To be noted: 312 h, pre-emergence, rate 1,000 g/ha, evaluated after 13 days (100=total damage to plant; 0=no damage), read-out: Percentage damage caused to weed species, ECHCG. The gist of the method:
as §2

Assay [9] has as its system Alopecurus myosuroides (ALOMY). The assay is described as above. To be noted: 312 h, pre-emergence, rate 1,000 g/ha, evaluated after 13 days (100=total damage to plant; 0=no damage), read-out: Percentage damage caused to weed species, ALOMY. The essentials:
as §2

Assay [10] relates to Solanum nigrum (SOLNI). Described as above. The note with it: 312 h, pre-emergence, rate 1,000 g/ha, evaluated after 13 days (100=total damage to plant; 0=no damage), read-out: Percentage damage caused to weed species, SOLNI. The essentials: as §2
In assay [11] the test system is Setaria faberi (SETFA). Described as above. The note with it: 312 h, pre-emergence, rate 1,000 g/ha, evaluated after 13 days (100=total damage to plant; 0=no damage), read-out: Percentage damage caused to weed species, SETFA. The essentials: as §2
Assay [12] relates to Amaranthus retoflexus (AMARE). Described as above. To be noted: Amaranthus retroflexus, 312 h; pre-emergence, rate 1,000 g/ha, evaluated after 13 days (100=total damage to plant; 0=no damage); read-out: Percentage damage caused to weed species, AMARE. The gist of the method: as §2

Each structure is given as a SMILES string.

Regarding `COC(=O)c1nc(C2CC2)nc(N(C)Cc2cccc(Cl)c2)c1Cl` [Compound 5-62, 5-Chloro-4-[N-(3-chlorophenyl-methyl)-N-methyl-amino]-2-cyclo-propyl-6-methoxy-carbonylpyrimidine], the pest or weed control at 1000 g/ha was found to be 90% in assay [1]; 30% in [2]; 20% in assay [3]; 80% in assay [4]; 40% in assay [5]; 100% in [6]. The pest or weed control at 1000 g/ha in assay [7] stood at 60%; in assay [8], 0%; in [9] it was 0%; in [10], 20%; in [11], 10%; in assay [12], 100%.

For the compound `COC(=O)c1nc(C2CC2)nc(N(C)Cc2ccc(Cl)cc2)c1Cl` [Compound 5-63, 5-Chloro-4-[N-(4-chlorophenyl-methyl)-N-methyl-amino]-2-cyclo-propyl-6-methoxy-carbonylpyrimidine], the pest or weed control at 1000 g/ha was found to be 90% in assay [1]; 40% in assay [2]; 30% in assay [3]; 80% in assay [4]; 70% in assay [5]; 100% in assay [6]. Further, the pest or weed control at 1000 g/ha was determined as 70% in [7]; 0% in assay [8]; 10% in assay [9]; 30% in assay [10]; 20% in assay [11]; 100% in assay [12].

In the case of `COC(=O)c1nc(C2CC2)nc(N(C)Cc2ccccc2F)c1Cl` [Compound 5-64, 5-Chloro-2-cyclo-propyl-4-[N-(2-fluorophenylmethyl)-N-methyl]-6-methoxy-carbonylpyrimidine], the pest or weed control at 1000 g/ha in [1] stood at 100%; in [2], 80%; in assay [3] it was 20%; in [4] it was 90%; in assay [5] it was 90%; in assay [6] it was 100%. Moreover, the pest or weed control at 1000 g/ha in [7] is 80%; in assay [8], 20%; in assay [9], 10%; in assay [10] it was 70%; in [11], 10%; in assay [12] it was 70%.

For the compound `COC(=O)c1nc(C2CC2)nc(N(C)Cc2cccc(F)c2)c1Cl` [Compound 5-65, 5-Chloro-2-cyclopropyl-4-[N-(3-fluorophenylmethyl)-N-methyl-amino]-6-methoxy-carbonylpyrimidine], the pest or weed control at 1000 g/ha in assay [1] was determined as 90%; in assay [2] it was 70%; in [3] it was 30%; in [4], 100%; in assay [5] it was 80%; in assay [6], 100%. In addition, the pest or weed control at 1000 g/ha in [7] was 100%; in assay [8], 10%; in [9], 20%; in [10], 90%; in assay [11], 20%; in assay [12] it was 100%.

Consider `COC(=O)c1nc(C2CC2)nc(N(C)Cc2ccc(F)cc2)c1Cl` [Compound 5-66, 5-Chloro-2-cyclopropyl-4-[N-(4-fluorophenylmethyl)-N-methyl-amino]-6-methoxy-carbonylpyrimidine], for which the pest or weed control at 1000 g/ha stood at 100% in assay [1]; 40% in assay [2]; 20% in [3]; 90% in assay [4]; 80% in assay [5]; 100% in assay [6]. Besides, the pest or weed control at 1000 g/ha was 70% in assay [7]; 40% in assay [8]; 30% in assay [9]; 60% in assay [10]; 60% in [11]; 100% in [12].

Turning to `COC(=O)c1nc(C2CC2)nc(N(C)Cc2ccc(Br)cc2)c1Cl` [Compound 5-69, 4-[N-(4-Bromo-phenylmethyl)-N-methyl-amino]-5-chloro-2-cyclo-propyl-6-methoxy-carbonylpyrimidine], the pest or weed control at 1000 g/ha in assay [1] came out at 80%; in assay [2], 50%; in assay [3], 30%; in assay [4], 80%; in [5], 70%; in assay [6] it was 100%. In addition, the pest or weed control at 1000 g/ha in [7] amounted to 50%; in assay [8] it was 10%; in assay [9], 10%; in [10], 20%; in [11] it was 0%; in assay [12] it was 70%.

Take `COC(=O)c1nc(C2CC2)nc(N(C)Cc2ccc(C)cc2)c1Cl` [Compound 5-73, 5-Chloro-2-cyclopropyl-6-methoxycarbonyl-4-[N-methyl-N-(4-methylphenyl)-methylamino]-pyrimidine]: the pest or weed control at 1000 g/ha in assay [1] came to 100%; in [2] it was 10%; in assay [3], 10%; in assay [4], 70%; in assay [5], 50%; in [6], 100%. Also, the pest or weed control at 1000 g/ha in [7] stood at 30%; in assay [8] it was 0%; in [9], 0%; in [10], 20%; in assay [11], 0%; in assay [12], 80%.

In the case of `COC(=O)c1nc(C2CC2)nc(N(C)Cc2cccc(C(F)(F)F)c2)c1Cl` [Compound 5-76, 5-Chloro-2-cyclopropyl-6-methoxycarbonyl-4-[N-methyl-N-(3-trifluoromethyl-phenylmethyl)-amino]pyrimidine], the pest or weed control at 1000 g/ha in assay [1] was found to be 90%; in [2], 50%; in assay [3], 40%; in assay [4] it was 90%; in assay [5] it was 80%; in assay [6], 100%. For the same compound, the pest or weed control at 1000 g/ha in [7] is 60%; in [8] it was 20%; in [9], 10%; in [10], 40%; in assay [11], 30%; in assay [12], 80%.
